In patent US6337316B1, “Pharmaceutical compositions thereof, and methods of using same” (Applied Research Systems ARS Holding N.V., priority 1997, dated 2002):
“Also recorded” adds a separate entry of the source. Bridge positions count the residues as written; N and C are the ends. Ends that are not written are not given here. Peptide text beside a SMILES is read from it.

Key:
[1] = test system: murine MLR splenocyte proliferation; assay: One-way murine MLR (C57Bl/6 stimulators, BalB/c responders); type: cell-based, mouse
Method: One-way murine MLRs were set up using the C57Bl/6 mice splenocytes as stimulators and BalB/c splenocytes as responders.
Spleens were excised from mice (Jackson Laboratories, Bar Harbor, Ma.) 6-8 weeks of age. Cells were separated from the capsule using sterile frosted glass slides and washed in cold RPMI 1640 1×. Red blood cells were lysed by treating the spleen cell suspension with cold Tris ammonium chloride buffer (2 ml/spleen) for 3 min on ice. After lysis, the cells were washed 2× in 5 volumes of complete medium (RPMI 1640 containing 10 % heat-inactivated FBS, 2 mM glutamine, 50 μM 2-mercaptoethanol, 100 U/ml penicillin-100 μg/ml strepcomycin, 1 mM sodium pyruvate and 1 mM non-essential amino acids).
Plastic-adherent cells were removed from splenocytes of BalB/c mice by adjusting the cell concentration to 3×10^6 cells/ml in complete medium and incubating the cells for 1.5-2 h at 37° C. in T-75 flasks. Following incubation non-adherent cells were collected by gently washing the flasks and the percent recovery determined (60-70%). Bal b/C responder cells were stored on ice until mitomycin C treatment of stimulator cells was completed.
Following RBC lysis splenocytes of C57Bl/6 mice were adjusted to 2-4×10^6 cells/ml in complete medium and treated with mitomycin C (50 μg/ml) for 30 min at 37° C. in a humidified 5% CO2 in air atmosphere. Following treatment, cells were washed with 5 volumes of complete medium 3×, and viable counts determined using trypan blue.
To set up autologous stimulation controls some responder cells were also treated with mitomycin C as mentioned above.
For the assay, responder and stimulator cells were plated at 10^5 cells/well in 96-well round bottom plates. […]
Appropriate scrambled peptide controls and matrix controls were included in every assay. […] Proliferation of the cells was determined by pulsing the wells with 3H-Tdr (1 μCi/well) For the last 6 h of the assay. Plates were harvested and the counts incorporated determined as described above.

[2] = test system: binding of CTLA-4Ig to B7 on Cess B cells; assay: CTLA-4Ig/B7 binding assay on Cess B cells by FACS; conditions: FACS; assays of 3/24, 3/25, 4/5, 4/25; one symbol per assay
Method: +++ was assigned if the peptide tested gave >50% change in cpm in a dose dependent fashion. In addition to the MLR, these 34 peptides were also evaluated in a CTLA-4Ig/B7 binding assay in which the ability of these peptides to affect the binding of CTLA-4Ig to B7 on Cess B cells was examined by FACS analysis.
As with the MLR, a + or − was assigned to each peptide depending on its ability to effect CTLA-4Ig binding to Cess B cells; where − represents no change in binding, + represents a minor change of <10% in binding, and a ++ represents a change of >20% in binding.

[3] = test system: lymphocyte proliferation in the human MLR; type: cell-based; conditions: for effect on the human MLR in combination with CTLA-4Ig: CTLA-4Ig spiked in at 0.5 μg/ml (FIG. 8); for Human MLR (ability to inhibit lymphocyte proliferation, cpm): peptide 12.5 to 100 μM, assays of 1/24, 1/31, 3/6, 4/17, 5/2, one symbol per assay
Method: Whole blood from donors was obtained from Interstate Blood Bank, Memphis, Tenn. Blood specimens were handled in a biosafety level 2 containment facility as recommended for potentially infectious blood specimens in the CDC/NIH manual Biosafety in Microbiological and Biomedical Laboratories; 3rd edition, 1993, page 10. Peripheral blood mononuclear cells (PBMC) were separated from red blood cells and granulocytes by ficoll-hypaque purification. Whole peripheral blood was diluted 1:2 in PBS and 30 ml was overlayed onto 15 ml of ficoll-hypaque in 50 ml polypropylene tubes. The tubes were spun at 400×g for 30 min at 25° C. Following centrifugation, the interface between the upper plasma layer and the lower ficoll layer was collected, cells washed in RPMI-1640 2×, and viable counts determined using trypan blue. Cells to be used as responders in the assay were stored on ice until mitomycin C treatment of stimulator cells was completed.
PBMC, isolated as described above, to be used as stimulators in the assay were adjusted to 2-4×10^6 cells/ml in complete medium (RPMI 1640 containing 10% heat-inactivated human AB serum, 2 mM glutamine, 50 μM 2-mercaptoethanol and 100 U/ml penicillin-100 μg/ml streptomycin), and treated with mitomycin C (25 μg/ml) for 30 min in a 37° C. water bath. Following treatment, cells were washed with S volumes of complete medium 3×, and viable counts determine using trypan blue. To set up autologous stimulation controls some responder cells were also treated with mitomycin C as mentioned above.
Purified CTLA-4Ig fusion protein was produced, as described in Steurer et al. 1995, from a NS-1 cell line kindly donated by Dr. T. Strom (Beth Israel Hospital, Boston, Mass.) as a 1 mg/ml solution in sterile PBS. The protein was stored frozen at −80° C. Upon thawing, the aliquot was stored at 4° C. Purified peptides were lyophilized according to known procedures. Peptides were reconstituted in sterile PBS, pH 7.4 at 2 mM concentration, aliquoted in microfuge cubes and stored frozen at −20° C. For the assay, an aliquot of the peptide was thawed and diluted to 200 μM in complete medium.
For the one-way allogeneic mixed lymphocyte response (MLR) assay, responder cells were plated at 10^6 cells/well, and stimulator cells at 5×10^4 cells/well in 96-well round bottom plates. Cells were incubated with serial dilutions of the anti-CD4 Ab Leu 3A (1 μg/ml-0.06 μg/ml) in triplicate, or an isotype-matched control Ab. Cyclosporin A at 1 μg/ml was used as an additional control.
CTLA-4 Ig was serially diluted an.4 tested from 10 μg/ml to 0.15 μg/ml. Peptides were tested either directly or in the presence of a constant spiked-in dose of CTLA-4 Ig at 0.5 μg/ml. The plates were incubated at 37° C. in a humidified 5% CO2 atmosphere for 7 days.
Proliferation of the cells was determined by pulsing the wells with ^3H-Tdr (1 μCi/well) for the last 18 h of the assay. Plates were harvested using a Tomtec -late harvester and the counts incorporated determined using a Wallac microbetaplate plus reader.
A total of 34 peptides were tested for inhibition of lymphocyte proliferation in the human MLR. Each peptide was tested in a MLR at doses ranging from 12.5 to 100 μM. The activity of each peptide was identified by assigning a + and − tone peptide depending on its ability to inhibit lymphocyte proliferation in the MLR (cpms).

[4] = test system: Th1-type cytokines and antigen specific T cells; conditions: delayed administration of the protein; cited from earlier work
B7-1 = biological target: T1, B7-1 (Homo sapiens, UniProt P33681); conditions: CTLA-4Ig vs CD28Ig, higher affinity; cited from earlier work
T1 sequence (P33681 35-288): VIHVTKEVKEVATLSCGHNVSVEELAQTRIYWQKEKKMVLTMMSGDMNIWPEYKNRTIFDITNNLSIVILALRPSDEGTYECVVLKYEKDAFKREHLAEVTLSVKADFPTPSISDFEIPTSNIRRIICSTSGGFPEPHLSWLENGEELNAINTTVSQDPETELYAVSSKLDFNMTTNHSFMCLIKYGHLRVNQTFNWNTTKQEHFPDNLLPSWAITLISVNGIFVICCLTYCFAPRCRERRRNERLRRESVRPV

PHA activated PBLs = assay: Mitogen (PHA) stimulation assay of PBL, 3H-Tdr incorporation; type: cell-based, human; conditions: for effect on PHA activation of PBLs / PHA stimulated T cells: in words
Method: For these assays, ficoll-hypaque purified PBMC (10^5 cells/well) were incubated in flat-bottom 96-well tissue culture plates with indicated concentrations or phytohemagglutinin (PHA; 5, 2.5, 1.25, 0.5 μg/ml) for 3 days at 37° C. in a humidified 5% CO2/air incubator. Cells were incubated in the presence or absence of various concentrations of CTLA-4 Ig, purified anti-CD80 mAb (1 μg/ml), anti-CD86 mAb (1 μg/ml), and peptides 199 and 201 serially diluted from 100 μM to 12.5 μM for the period of the assay.
Proliferation of the cells was determined by pulsing the wells with ^3H-Tdr (1 μCi/well) for the last 6 h of the assay. Plates were harvested using a Tomtec plate harvester and the counts incorporated determined using a Wallac microbetaplate plus reader.
AT 199 was tested for inhibition of PHA activated PBLs. PHA activation, while not specifically targeted at the CD28 pathway, has some dependence on this pathway depending on the concentration of PHA used to activate lymphocytes. To determine the […] of phytohemagglutinin (PHA) activation on CD28 signaling, CTLA-4Ig was included in each assay.
In order to test for an unanticipated mechanism of inhibition, AT 199 was assayed using PHA-stimulation of PBLs. Phytohemagglutinin (PHA) is a lectin extracted from the red kidney bean and is a mixture of five tetrameric glycoprotein. PHA stimulates T cells in the presence of accessory cells (but not B cells) by cross-linking a variety of critical T cell surface molecules, including CD3, CD2, CD4, CD8 and LFA-1 (Geppert, 1992). The involvement of CD28 in this stimulation is dependent on the degree of crosslinking by PHA. At the appropriate concentration of PHA, the simultaneous engagement of cell surface receptors results in a proliferation response that can bypass the need for specific costimulatory signals such as CD28. This can be monitored by examining CTLA-4Ig inhibition of PHA mitogenesis.

THP-1 cells = assay: Toxicity test on growing cell cultures; type: cell-based; conditions: 100 μM AT 199
Method: (§1) To determine if the activity of AT 199 was due to a specific effect on lymphocyte proliferation in the MLR or due to a non-specific inhibition of lymphocyte proliferation in general (i.e., toxicity), the toxicity of AT 199 was tested against THP-1, Jurkat, and resting and activated PBLs.
(§2) AT 199 and its control analogs were assayed for overt toxicity and non-specific inhibition. The peptides were added to growing cultures of THP-1 cells, Jurkat cells and primary peripheral blood lymphocytes (PBLs).

Jurkat cells = assay: Toxicity test on growing cell cultures; type: cell-based; conditions: 100 μM AT 199
Method: as §1, §2

[5] = test system: primary peripheral blood lymphocytes (PBLs); assay: Toxicity test on growing cell cultures; type: cell-based, human; conditions: 100 μM AT 199
Method: as §1, §2

[6] = peptides tested 100 μM to 1.56 μM (FIG. 9)

Compound: RKCLGYPPPYYCHH (not fully specified (bridges); cysteine pairing not given here) [AT 201.1]
- inhibition of the murine MLR [1, 6]: 25%
- Binding Assay (effect on CTLA-4Ig binding to Cess B cells) [2]: −, −, −
- effect on the human MLR in combination with CTLA-4Ig [3]: no effect
- inhibition of the MLR, in words ([3]; control and linear peptides compared with AT 199): did not inhibit any of the MLRs as much as AT 199
- Human MLR (ability to inhibit lymphocyte proliferation, cpm) [3]: −, −, −

Compound: CTLA-4Ig: Purified CTLA-4Ig fusion protein (murine) produced from a NS-1 cell line as in Steurer et al. 1995
- inhibition of the murine MLR ([1]; 10 μg/ml CTLA-4Ig, stated as similar to AT 199.3): ~85%
- blunted expansion of antigen specific T cells [4]: 50%
- reduction in Th1-type cytokines [4]: 80-90%
- affinity for B7-1 relative to CD28Ig (B7-1): 20-100 fold
- inhibition of PHA activation (PHA activated PBLs; 10 μg/ml CTLA-4Ig, PHA 2.5 and 5 μg/ml (FIG. 11)): 40-50%
- effect on PHA activation of PBLs / PHA stimulated T cells (PHA activated PBLs): inhibited PHA activation slightly

Compound: AT 199.3: resynthesis of AT 199.1 using the original protocols without change (RKCLMYPPPYYCHH; disulfide 3-12 (inferred); not fully specified (C-terminus); also: disulfide cyclisation only partial, mixed cyclic and linear population)
- inhibition of the murine MLR [1, 6]: 85%
- inhibition of the human MLR ([3]; 100 μM, one MLR): 30%
- effect on the human MLR in combination with CTLA-4Ig [3]: inhibited the MLR over and above CTLA-4Ig by itself

Compound: CSCC[C@@H]1NC(=O)[C@H](CC(C)C)NC(=O)[C@@H](NC(=O)[C@H](CCCCN)NC(=O)[C@@H](N)CCCNC(=N)N)CSSC[C@@H](C(=O)N[C@@H](Cc2c[nH]cn2)C(=O)N[C@@H](Cc2c[nH]cn2)C(N)=O)NC(=O)[C@H](Cc2ccc(O)cc2)NC(=O)[C@H](Cc2ccc(O)cc2)NC(=O)[C@@H]2CCCN2C(=O)[C@@H]2CCCN2C(=O)[C@@H]2CCCN2C(=O)[C@H](Cc2ccc(O)cc2)NC1=O [AT 199.1, RKCLMYPPPYYCHH] (HELM PEPTIDE1{R.K.C.L.M.Y.P.P.P.Y.Y.C.H.H.[am]}$PEPTIDE1,PEPTIDE1,3:R3-12:R3$$$V2.0; N-terminus assumed)
- inhibition / effect on growth of THP-1 cells (THP-1 cells): no inhibition; also recorded: No effect
- inhibition / effect on growth of Jurkat cells (Jurkat cells): no inhibition; also recorded: No effect
- Binding Assay (effect on CTLA-4Ig binding to Cess B cells) [2]: +, +, +
- inhibition / effect on growth of resting primary PBLs [5]: no inhibition; also recorded: No effect
- effect on PHA activation of PBLs / PHA stimulated T cells (PHA activated PBLs): only a minor effect; also recorded: did not inhibit
- IC50 [3]: 50 to 100 µM
- Human MLR (ability to inhibit lymphocyte proliferation, cpm) [3]: +, +, +
- human MLR assays in which the peptide was active ([3]; total of 6 human MLR assays): 5 out of 6
